Data reported in PubChem BioAssay (NCI).
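Growth conditions: 96-well plates. Treatment: test compound, 48 hours, 5 concentrations. Analysis: linear interpolation between bracketing concentrations; unreached endpoints set to highest concentration. GI50 is the concentration that inhibits growth by half. TGI is the concentration that stops growth completely.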

How the values were obtained:
Assay in all cases: NCI anticancer screen, dose series, 48 h
A498 renal = test system: A498 renal
BT-549 breast = test system: BT-549 breast
HCT-116 colon = test system: HCT-116 colon
K-562 leukemia = test system: K-562 leukemia
NCI-H522 lung = test system: NCI-H522 lung
OVCAR-8 ovarian = test system: OVCAR-8 ovarian
SF-295 CNS = test system: SF-295 CNS
SK-OV-3 ovarian = test system: SK-OV-3 ovarian
SNB-19 CNS = test system: SNB-19 CNS
T-47D breast = test system: T-47D breast

| SMILES | GI50 (A498 renal) | TGI (A498 renal) | GI50 (BT-549 breast) | TGI (BT-549 breast) | GI50 (HCT-116 colon) | TGI (HCT-116 colon) | GI50 (K-562 leukemia) | TGI (K-562 leukemia) | GI50 (NCI-H522 lung) | TGI (NCI-H522 lung) | GI50 (OVCAR-8 ovarian) | TGI (OVCAR-8 ovarian) | GI50 (SF-295 CNS) | TGI (SF-295 CNS) | GI50 (SK-OV-3 ovarian) | TGI (SK-OV-3 ovarian) | GI50 (SNB-19 CNS) | TGI (SNB-19 CNS) | GI50 (T-47D breast) | TGI (T-47D breast) |
| --- | --- | --- | --- | --- | --- | --- | --- | --- | --- | --- | --- | --- | --- | --- | --- | --- | --- | --- | --- | --- |
| COC(=O)[C@]12CC[C@@H](C)[C@H](C)[C@@H]1C1=CC[C@@H]3[C@@]4(C)C(C=O)=C[C@@](C)(COC(=O)c5ccco5)[C@@H]4[C@H](O)C[C@@]3(C)[C@]1(C)CC2 | 3.19 µM | 12.7 µM | 2.07 µM | 6.65 µM | 1.19 µM | 2.59 µM | 2.96 µM | 9.96 µM | 1.64 µM | 3.94 µM | 2.9 µM | 13.4 µM | 1.95 µM | 4.69 µM | 3.64 µM | 18.3 µM | 4.32 µM | 30.8 µM | 2.37 µM | 39.5 µM |
| CC(=O)NC1CONC1=O (centres undefined) |  | > 100 µM |  | > 100 µM |  | > 100 µM |  | > 100 µM |  | > 100 µM |  | > 100 µM |  | > 100 µM |  | > 100 µM |  | > 100 µM |  | > 100 µM |
| COc1ccc(-c2nn(-c3cccc(Cl)c3)cc2-c2nc(N)[nH]c(=O)c2C#N)cc1 | 1.47 µM | 6.75 µM | 3.54 µM | 22.4 µM | 4.35 µM | 16.2 µM | 3.45 µM | > 100 µM | 3.11 µM | 9.8 µM | 10.1 µM | 60.3 µM | 2.36 µM | 9.23 µM | 6.56 µM | 30.7 µM | 4.58 µM | > 100 µM | 6.05 µM | 32.2 µM |
| Oc1ccc(N=Nc2nccs2)c(O)c1 | 18.8 µM | 40.5 µM | 16.1 µM | 57.6 µM | 2.92 µM | 8.95 µM | 3.58 µM | 34.3 µM | 3.5 µM | 13.6 µM | 3.75 µM | 23 µM | 2.73 µM | 15.1 µM | 6.97 µM | 62.6 µM | 11.5 µM | 53.1 µM | 4.87 µM | 40.1 µM |
| NC(N)=N/N=C(\N=Nc1ccccc1)c1ccc(Cl)cc1 | 9.53 µM | 22.2 µM | 4.86 µM | 19.2 µM | 1.7 µM | 3.6 µM | 1.2 µM | 6.37 µM | 3.35 µM | 13.8 µM | 2.81 µM | 9.58 µM | 1.82 µM | 6.39 µM | 3.44 µM | 9.63 µM | 12 µM | 35.5 µM | 2.31 µM | 8.17 µM |
| COc1ccc2c(c1)C(C)Cc1c(ncnc1-n1cnc3ccccc31)N2C (centres undefined) | 0.234 µM | 10.2 µM | 0.47 µM | 10.3 µM | 0.494 µM | 12.7 µM | 0.384 µM | > 100 µM | 0.254 µM | 0.744 µM | 0.959 µM | 87.4 µM | 0.292 µM | 10.2 µM | 0.429 µM | 16 µM | 0.695 µM | 27.5 µM | 0.432 µM | 64.6 µM |
| c1ccc(NCCSc2nc3ccccc3s2)cc1 |  | > 100 µM |  | > 100 µM |  | > 100 µM |  | > 100 µM |  | > 100 µM |  | > 100 µM |  | > 100 µM |  | > 100 µM |  | > 100 µM |  | > 100 µM |
| COc1cc(/C=C/C(=O)C(C(=O)/C=C/c2ccc(OC(=O)CCNC34CC5CC(CC(C5)C3)C4)c(OC)c2)C(=O)CCNC23CC4CC(CC(C4)C2)C3)ccc1OC(=O)CCNC12CC3CC(CC(C3)C1)C2 (centres undefined) | 3.47 µM | 13.6 µM | 2.5 µM | 5.77 µM | 2.94 µM | 10.7 µM | 1.99 µM | 4.97 µM | 3.46 µM | 15.2 µM | 1.62 µM | 5.18 µM | 17.2 µM | 34.4 µM | 5.44 µM | 36.3 µM | 4.07 µM | 15.9 µM | 3.69 µM | 28.9 µM |
| NCCCn1c2c(c3ccccc3c1=O)C(=O)c1ccccc1-2 | 0.0481 µM | 0.919 µM | 1.47 µM | 12.4 µM | 0.259 µM |  | 0.0857 µM | 10.4 µM | 0.564 µM | 13.4 µM | 0.0658 µM | 1.32 µM | 0.0709 µM | 0.55 µM | 0.133 µM | 1.94 µM | 0.0857 µM | 3.43 µM | 0.162 µM | 0.951 µM |
